This is an account of results in patent US9884086B2, “Administration method for anticancer drugs” (Dong-A University Research Foundation for Industry—Academy …, priority 2014, dated 2018).

The test system of data set [1] is ATR pathway. As to the kind of experiment: ATR pathway markers in mouse liver after cisplatin injection at CT08 or CT20 (immunoblotting). Type of data set: in vivo. On the procedure:
Before sacrificing C57BL/6J male mouse, the animal was placed under an environment where the daytime and nighttime were maintained for 12 hours each […], during 2 weeks. After exposing the mouse to CO2 and putting the animal to death, the liver of the mouse was cut into pieces having a size of less than 2 mm and washed with phosphate buffer saline (PBS), followed by freezing the same in liquid nitrogen. The frozen liver piece was pulverized using a ceramic mortar and pestle under liquid nitrogen to prepare a whole cell fusion. An extract of cytoplasm and nucleus protoplasm as well as the whole cell fusion were prepared. A chromatin-rich part could be obtained by treating 10-U DNase I (Promega) and 100-U micrococcal nuclease at 30° C. for 30 minutes and from the nucleus protoplasm through extraction using fillets. Each part was analyzed by SDS-PAGE and both of Ponceau S staining and immunoblotting. According to typical immunoblotting orders, amounts of proteins were determined using the above parts. For quantification of the immunoblotting, ImageQuant 5.2 software (Molecular Dynamics) was used. Antibodies used in the experiments were as follows: GAPDH, p-Chk1 5345, p53, p-p53 S15 (Cell Signaling Technology), ATR, RPA70 (Replication Protein A), Chk1, Actin (Santa Cruz Biotechnology), Clock, Cry1, Cry2, p-MCM2 5108, Tim (Timeless), Tipin (Bethyl Laboratory), histone H3 (Millipore), Per2 (BD Biosciences) and platinum GpG (Oncolyze). Tim and Cry1, Tim protein complexes were precipitated using protein A/G-coupled sepharose (Sigma) collected beforehand as well as an anti-Tim antibody. In order to detect Cry1 precipitated together with Tim, immunoblotting was implemented. In the present disclosure, CT refers to a time having passed from a time period when the bio-cyclic rhythm was induced. For instance, CT08 means 8 hours after the induction of the bio-cyclic rhythm, and CT20 means 20 hours after the induction of the bio-cyclic rhythm. […]
(Immunoblotting shows a protein as a band on a membrane.)

Data set [2] has as its system WT MEFs cells. In words: removal of Platinum-GpG adducts after cisplatin in forskolin-synchronized cells (immunoslot blotting). Type of data set: cell-based, mouse. The note with it: cisplatin given 12 hours vs 24 hours after forskolin treatment. Here is the method: For cell culture, 1 ml of 10% (vol/vol) fetal bovine serum (FBS, Hyclone Co.) was added to 10 ml of Dulbecco's modified Eagle's medium (DMEM), followed by adding 100 μl of 1% (vol/vol) penicillin-streptomycin thereto. Then, NIH3T3 cells, wild-type mouse embryo fibroblasts (WT MEFs), and mouse embryo fibroblasts free from cryptochrome 1 (Cry1) and cryptochrome 2(Cry2) (Cry^DKO MEFs), respectively, were cultured in the above prepared culture medium. For bio-cycle synchronization, fused cells were further cultured for additional three (3) days after adding […] forskolin to the above medium. After separating genomic DNA from MEFs cells using QIAamp DNA Mini kit (Qiagen), […] of genomic DNA was moved to a nitrocellulose membrane by a BioDot SF Microfiltration apparatus (BioRad). The genomic DNA was heated at 80° C. for 2 hours under vacuum to be bound to the nitrocellulose membrane. Using a mono-antibody specifically recognizing Platinum-GpG adducts (Oncolyze), an amount of DNA damaged by cisplatin was relatively measured. Then, it may be identified whether DNA bound to the nitrocellulose membrane is quantified on Gel-doc after staining the DNA with Sybr-gold as a DNA staining reagent.

For data set [3] the following is noted: i.p. injection; cited from earlier work.
The subject of data set [4] is cryptochrome 1 (Cry1). In words: Cry1 expression over time after forskolin bio-cycle synchronization in WT MEFs (immunoblotting). Type of data set: cell-based, mouse. On the procedure: (§1) For cell culture, 1 ml of 10% (vol/vol) fetal bovine serum (FBS, Hyclone Co.) was added to 10 ml of Dulbecco's modified Eagle's medium (DMEM), followed by adding 100 μl of 1% (vol/vol) penicillin-streptomycin thereto. Then, NIH3T3 cells, wild-type mouse embryo fibroblasts (WT MEFs), and mouse embryo fibroblasts free from cryptochrome 1 (Cry1) and cryptochrome 2(Cry2) (Cry^DKO MEFs), respectively, were cultured in the above prepared culture medium. For bio-cycle synchronization, fused cells were further cultured for additional three (3) days after adding […] forskolin to the above medium. An extract of cytoplasm and nucleus protoplasm as well as the whole cell fusion were prepared. A chromatin-rich part could be obtained by treating 10-U DNase I (Promega) and 100-U micrococcal nuclease at 30° C. for 30 minutes and from the nucleus protoplasm through extraction using fillets. Each part was analyzed by SDS-PAGE and both of Ponceau S staining and immunoblotting. According to typical immunoblotting orders, amounts of proteins were determined using the above parts. For quantification of the immunoblotting, ImageQuant 5.2 software (Molecular Dynamics) was used. […]

Data set [5] relates to ATR. As to the kind of experiment: phosphorylation of p53 and Chk1 (proxy marker of ATR) after UV radiation in forskolin-synchronized cells. Type of data set: cell-based, mouse. The note with it: NIH3T3 cells. On the procedure:
as §1, with “above medium. For UV radiation, using a germicidal lamp (GE) mainly emitting UV-C beam, UV light was emitted to the fused cells by 5 J/m^2. Then, a fluorescence rate of the incident beam was measured using a UV-C sensor. An extract” for “above medium. An extract”

As to `N.N.[Cl][Pt][Cl]` [cisplatin], the “accumulation of replicated protein A (RPA70) in chromatin” value in data set [1] (liver chromatin, after cisplatin injection at CT20) is “accumulation of replicated protein A was identified in chromatin”. For the same molecule, the “p-MCM2 signal, mouse at CT20 as compared to the mouse at CT08” value in data set [1] (mouse liver, at 8 hours or later after the cisplatin injection) is no less than 2 times. The “extents of expression of p-Chk1 and p-p53” value in data set [1] (mouse liver, cisplatin injected at CT08 and CT20) was “insignificant”. In addition, the “removal rate of Platinum-GpG” value in data set [2] is reported as “higher at 12 hours after forskolin treatment”. The “time until cisplatin reaches the liver” value in data set [3] is “about 2 hours”.

As for `C=C[C@@]1(C)CC(=O)[C@]2(O)[C@@]3(C)[C@@H](O)CCC(C)(C)[C@@H]3[C@H](O)[C@H](OC(C)=O)[C@@]2(C)O1` [forskolin], in data set [4], the “time of maximum expression of cryptochrome 1 (Cry1) after forskolin treatment” value came to 12 h and the “time of minimum expression of cryptochrome 1 (Cry1) after forskolin treatment” value stood at 24 h. Also, in data set [5], the “extent of phosphorylation of p53 and Chk1, cell 12 hours after forskolin treatment as compared to cell 24 hours after” value was 2 to 3 times.
